Active and inactive are the calls of the source. For most assays here, no stated cut-off is given here; in the data, actives have a measured Kd and inactives only a lower limit.
What was measured:
[1] = molecular target: Serine/threonine-protein kinase MRCK beta (Homo sapiens, UniProt Q9Y5S2)
[2] = molecular target: Cyclin-dependent kinase 7 (Homo sapiens, UniProt P50613)
[3] = molecular target: Dual specificity tyrosine-phosphorylation-regulated kinase 1A (Homo sapiens, UniProt Q13627)
Ephrin type-A receptor 5 = Ephrin type-A receptor 5 (Homo sapiens, UniProt P54756)
Ephrin type-A receptor 5, sequence (P54756 whole entry): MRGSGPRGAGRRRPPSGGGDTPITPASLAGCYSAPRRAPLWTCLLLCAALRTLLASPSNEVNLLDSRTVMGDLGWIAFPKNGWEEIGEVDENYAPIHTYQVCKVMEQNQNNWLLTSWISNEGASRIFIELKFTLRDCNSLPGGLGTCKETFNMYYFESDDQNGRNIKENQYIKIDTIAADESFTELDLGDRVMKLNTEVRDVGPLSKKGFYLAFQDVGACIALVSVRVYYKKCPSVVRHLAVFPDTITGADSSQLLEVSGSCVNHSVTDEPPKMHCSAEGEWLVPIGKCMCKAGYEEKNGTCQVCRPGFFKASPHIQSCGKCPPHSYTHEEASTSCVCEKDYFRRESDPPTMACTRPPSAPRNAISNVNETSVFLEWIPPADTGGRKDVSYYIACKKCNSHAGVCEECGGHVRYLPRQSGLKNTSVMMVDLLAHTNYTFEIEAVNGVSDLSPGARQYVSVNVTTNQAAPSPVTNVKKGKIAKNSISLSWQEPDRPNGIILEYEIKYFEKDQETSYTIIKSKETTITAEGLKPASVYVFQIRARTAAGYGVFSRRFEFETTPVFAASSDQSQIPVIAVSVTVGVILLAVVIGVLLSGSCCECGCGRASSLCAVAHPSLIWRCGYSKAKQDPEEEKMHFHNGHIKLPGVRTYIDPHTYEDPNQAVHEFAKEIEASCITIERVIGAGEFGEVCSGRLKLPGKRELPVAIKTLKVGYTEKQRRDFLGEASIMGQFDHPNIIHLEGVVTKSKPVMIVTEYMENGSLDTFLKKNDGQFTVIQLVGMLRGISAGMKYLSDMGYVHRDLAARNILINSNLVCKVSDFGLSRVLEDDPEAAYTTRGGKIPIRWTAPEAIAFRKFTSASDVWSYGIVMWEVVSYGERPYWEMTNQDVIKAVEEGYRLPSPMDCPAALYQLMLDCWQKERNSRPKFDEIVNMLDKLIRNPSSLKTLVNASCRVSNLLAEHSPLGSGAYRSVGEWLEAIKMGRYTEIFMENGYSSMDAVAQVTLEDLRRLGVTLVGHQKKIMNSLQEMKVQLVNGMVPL

[4] = molecular target: Interleukin-1 receptor-associated kinase 1 (Homo sapiens, UniProt P51617)
Interleukin-1 receptor-associated kinase 1, sequence (P51617 whole entry): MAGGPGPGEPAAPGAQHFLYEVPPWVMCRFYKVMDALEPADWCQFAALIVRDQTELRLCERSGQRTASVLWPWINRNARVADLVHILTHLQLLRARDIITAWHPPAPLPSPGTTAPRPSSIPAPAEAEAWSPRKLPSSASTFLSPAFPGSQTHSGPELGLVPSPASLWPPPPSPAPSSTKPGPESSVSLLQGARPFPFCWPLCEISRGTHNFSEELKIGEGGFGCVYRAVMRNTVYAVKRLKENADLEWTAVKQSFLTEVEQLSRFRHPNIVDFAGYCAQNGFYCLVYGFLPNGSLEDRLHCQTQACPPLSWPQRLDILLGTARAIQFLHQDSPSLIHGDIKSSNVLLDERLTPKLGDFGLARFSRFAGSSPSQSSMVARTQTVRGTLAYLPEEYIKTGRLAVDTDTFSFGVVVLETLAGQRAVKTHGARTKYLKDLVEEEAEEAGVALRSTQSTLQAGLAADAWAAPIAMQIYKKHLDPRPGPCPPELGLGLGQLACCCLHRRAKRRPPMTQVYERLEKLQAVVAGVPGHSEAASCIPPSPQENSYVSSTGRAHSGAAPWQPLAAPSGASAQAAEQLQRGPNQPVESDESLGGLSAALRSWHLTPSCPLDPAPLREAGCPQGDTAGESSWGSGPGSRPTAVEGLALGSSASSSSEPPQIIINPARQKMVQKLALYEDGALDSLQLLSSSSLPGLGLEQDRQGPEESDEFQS

[5] = molecular target: Mitogen-activated protein kinase 14 (Homo sapiens, UniProt Q16539)
Mitogen-activated protein kinase 14, sequence (Q16539 whole entry): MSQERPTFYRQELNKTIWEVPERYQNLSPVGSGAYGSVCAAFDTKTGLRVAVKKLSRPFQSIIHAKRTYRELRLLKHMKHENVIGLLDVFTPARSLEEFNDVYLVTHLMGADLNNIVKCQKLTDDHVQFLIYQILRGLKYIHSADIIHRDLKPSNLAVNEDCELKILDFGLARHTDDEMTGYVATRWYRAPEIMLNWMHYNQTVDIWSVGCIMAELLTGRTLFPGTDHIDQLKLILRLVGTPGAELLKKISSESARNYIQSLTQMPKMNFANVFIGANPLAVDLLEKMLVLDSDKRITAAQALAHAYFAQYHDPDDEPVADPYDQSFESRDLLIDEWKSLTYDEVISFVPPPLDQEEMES

[6] = molecular target: T1, Bifunctional phosphoribosylaminoimidazole carboxylase/phosphoribosylaminoimidazole succinocarboxamide synthetase (Homo sapiens, UniProt P22234)
T1 sequence (P22234 whole entry): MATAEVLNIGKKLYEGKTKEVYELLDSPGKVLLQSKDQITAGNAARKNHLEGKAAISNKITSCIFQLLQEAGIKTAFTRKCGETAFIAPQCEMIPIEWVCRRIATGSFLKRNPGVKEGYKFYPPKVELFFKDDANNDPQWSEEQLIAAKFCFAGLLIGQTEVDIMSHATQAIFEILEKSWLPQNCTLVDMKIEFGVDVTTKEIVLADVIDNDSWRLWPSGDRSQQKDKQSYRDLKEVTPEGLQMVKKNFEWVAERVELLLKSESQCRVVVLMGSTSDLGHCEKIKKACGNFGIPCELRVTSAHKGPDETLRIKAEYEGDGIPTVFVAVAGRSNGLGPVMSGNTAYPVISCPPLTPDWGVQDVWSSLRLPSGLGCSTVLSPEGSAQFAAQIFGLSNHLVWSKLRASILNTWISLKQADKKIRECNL

[7] = molecular target: T2, Phosphorylase b kinase gamma catalytic chain, liver/testis isoform (Homo sapiens, UniProt P15735)
T2 sequence (P15735 whole entry): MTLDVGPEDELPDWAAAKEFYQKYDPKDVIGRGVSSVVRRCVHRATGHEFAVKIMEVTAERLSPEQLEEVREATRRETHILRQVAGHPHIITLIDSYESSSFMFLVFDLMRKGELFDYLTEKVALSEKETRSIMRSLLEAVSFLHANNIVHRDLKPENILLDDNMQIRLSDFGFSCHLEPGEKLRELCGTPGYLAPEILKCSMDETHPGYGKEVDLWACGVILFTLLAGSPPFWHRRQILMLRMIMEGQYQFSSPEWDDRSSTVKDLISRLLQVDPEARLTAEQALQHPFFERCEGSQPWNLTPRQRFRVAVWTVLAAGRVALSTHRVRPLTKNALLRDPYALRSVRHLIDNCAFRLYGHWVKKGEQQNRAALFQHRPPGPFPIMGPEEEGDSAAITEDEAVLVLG

[8] = molecular target: Ribosomal protein S6 kinase alpha-5 (Homo sapiens, UniProt O75582)
Ribosomal protein S6 kinase alpha-5, sequence (O75582 whole entry): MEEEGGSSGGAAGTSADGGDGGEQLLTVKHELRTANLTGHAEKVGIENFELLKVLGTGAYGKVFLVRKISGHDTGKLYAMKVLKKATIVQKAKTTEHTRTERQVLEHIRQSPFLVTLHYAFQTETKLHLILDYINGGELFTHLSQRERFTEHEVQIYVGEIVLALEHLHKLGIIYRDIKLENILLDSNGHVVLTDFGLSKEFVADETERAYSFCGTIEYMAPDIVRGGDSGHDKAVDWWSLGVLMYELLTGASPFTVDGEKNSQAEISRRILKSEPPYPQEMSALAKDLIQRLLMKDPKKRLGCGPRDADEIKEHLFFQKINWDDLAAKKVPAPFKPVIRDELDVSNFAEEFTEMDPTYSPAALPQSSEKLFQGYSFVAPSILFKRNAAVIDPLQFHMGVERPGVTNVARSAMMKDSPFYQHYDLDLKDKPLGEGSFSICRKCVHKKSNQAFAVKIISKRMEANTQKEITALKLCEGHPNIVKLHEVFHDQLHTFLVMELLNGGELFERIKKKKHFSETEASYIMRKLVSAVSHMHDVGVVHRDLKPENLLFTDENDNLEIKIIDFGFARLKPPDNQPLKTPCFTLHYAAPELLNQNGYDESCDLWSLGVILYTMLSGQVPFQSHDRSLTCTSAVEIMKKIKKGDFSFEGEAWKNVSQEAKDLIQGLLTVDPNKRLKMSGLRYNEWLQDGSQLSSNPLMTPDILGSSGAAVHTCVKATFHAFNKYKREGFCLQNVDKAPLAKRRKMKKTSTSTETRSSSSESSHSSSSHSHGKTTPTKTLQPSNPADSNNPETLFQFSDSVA

[9] = molecular target: T3, Structural maintenance of chromosomes protein 1A (Homo sapiens, UniProt Q14683)
T3 sequence (Q14683 whole entry): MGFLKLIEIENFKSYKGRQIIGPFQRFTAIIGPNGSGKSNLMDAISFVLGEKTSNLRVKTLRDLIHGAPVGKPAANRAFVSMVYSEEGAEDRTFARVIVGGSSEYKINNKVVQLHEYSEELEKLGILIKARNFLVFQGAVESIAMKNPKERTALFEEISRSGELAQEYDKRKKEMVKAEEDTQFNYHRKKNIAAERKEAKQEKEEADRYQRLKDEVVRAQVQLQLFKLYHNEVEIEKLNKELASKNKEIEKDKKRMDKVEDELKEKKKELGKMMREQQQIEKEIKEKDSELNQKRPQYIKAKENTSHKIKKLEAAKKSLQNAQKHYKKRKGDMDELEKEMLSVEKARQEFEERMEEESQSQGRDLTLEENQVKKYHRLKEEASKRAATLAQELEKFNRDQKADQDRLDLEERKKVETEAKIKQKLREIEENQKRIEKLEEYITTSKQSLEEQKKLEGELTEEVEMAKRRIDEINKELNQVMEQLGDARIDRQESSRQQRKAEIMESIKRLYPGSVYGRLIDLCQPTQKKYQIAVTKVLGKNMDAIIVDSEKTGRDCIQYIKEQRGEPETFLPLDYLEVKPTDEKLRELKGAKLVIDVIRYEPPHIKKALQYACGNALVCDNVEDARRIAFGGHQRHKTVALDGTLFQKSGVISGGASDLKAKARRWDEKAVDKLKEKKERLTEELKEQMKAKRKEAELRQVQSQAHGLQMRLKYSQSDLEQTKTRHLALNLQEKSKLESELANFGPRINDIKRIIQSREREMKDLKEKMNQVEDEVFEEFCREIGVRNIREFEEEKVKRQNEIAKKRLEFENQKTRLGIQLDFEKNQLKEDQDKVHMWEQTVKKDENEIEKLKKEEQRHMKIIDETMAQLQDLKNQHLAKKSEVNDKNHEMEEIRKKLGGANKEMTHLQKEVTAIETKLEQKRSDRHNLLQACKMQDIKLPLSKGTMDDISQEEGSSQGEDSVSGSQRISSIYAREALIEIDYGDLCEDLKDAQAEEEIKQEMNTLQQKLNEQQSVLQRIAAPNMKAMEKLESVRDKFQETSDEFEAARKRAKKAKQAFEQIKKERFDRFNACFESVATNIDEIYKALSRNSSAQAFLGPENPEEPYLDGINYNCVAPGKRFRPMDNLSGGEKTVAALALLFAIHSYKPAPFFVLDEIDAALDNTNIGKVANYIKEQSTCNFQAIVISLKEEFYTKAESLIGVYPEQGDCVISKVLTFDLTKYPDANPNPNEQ

[10] = molecular target: T4, Serine/threonine-protein kinase ULK3 (Homo sapiens, UniProt Q6PHR2)
T4 sequence (Q6PHR2 whole entry): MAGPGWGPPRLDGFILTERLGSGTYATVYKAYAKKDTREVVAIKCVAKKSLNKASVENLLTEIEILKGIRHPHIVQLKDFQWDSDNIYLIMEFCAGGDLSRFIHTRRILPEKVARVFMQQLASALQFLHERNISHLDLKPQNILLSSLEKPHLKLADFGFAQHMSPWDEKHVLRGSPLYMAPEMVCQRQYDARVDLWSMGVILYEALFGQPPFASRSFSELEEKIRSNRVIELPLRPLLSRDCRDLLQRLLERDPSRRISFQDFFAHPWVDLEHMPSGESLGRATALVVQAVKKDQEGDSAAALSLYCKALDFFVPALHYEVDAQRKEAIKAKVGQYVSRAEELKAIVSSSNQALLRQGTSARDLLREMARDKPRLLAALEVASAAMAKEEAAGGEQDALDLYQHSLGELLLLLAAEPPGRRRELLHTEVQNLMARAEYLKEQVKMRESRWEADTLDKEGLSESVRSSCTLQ

Serine/threonine-protein kinase MRCK beta, sequence (Q9Y5S2 whole entry): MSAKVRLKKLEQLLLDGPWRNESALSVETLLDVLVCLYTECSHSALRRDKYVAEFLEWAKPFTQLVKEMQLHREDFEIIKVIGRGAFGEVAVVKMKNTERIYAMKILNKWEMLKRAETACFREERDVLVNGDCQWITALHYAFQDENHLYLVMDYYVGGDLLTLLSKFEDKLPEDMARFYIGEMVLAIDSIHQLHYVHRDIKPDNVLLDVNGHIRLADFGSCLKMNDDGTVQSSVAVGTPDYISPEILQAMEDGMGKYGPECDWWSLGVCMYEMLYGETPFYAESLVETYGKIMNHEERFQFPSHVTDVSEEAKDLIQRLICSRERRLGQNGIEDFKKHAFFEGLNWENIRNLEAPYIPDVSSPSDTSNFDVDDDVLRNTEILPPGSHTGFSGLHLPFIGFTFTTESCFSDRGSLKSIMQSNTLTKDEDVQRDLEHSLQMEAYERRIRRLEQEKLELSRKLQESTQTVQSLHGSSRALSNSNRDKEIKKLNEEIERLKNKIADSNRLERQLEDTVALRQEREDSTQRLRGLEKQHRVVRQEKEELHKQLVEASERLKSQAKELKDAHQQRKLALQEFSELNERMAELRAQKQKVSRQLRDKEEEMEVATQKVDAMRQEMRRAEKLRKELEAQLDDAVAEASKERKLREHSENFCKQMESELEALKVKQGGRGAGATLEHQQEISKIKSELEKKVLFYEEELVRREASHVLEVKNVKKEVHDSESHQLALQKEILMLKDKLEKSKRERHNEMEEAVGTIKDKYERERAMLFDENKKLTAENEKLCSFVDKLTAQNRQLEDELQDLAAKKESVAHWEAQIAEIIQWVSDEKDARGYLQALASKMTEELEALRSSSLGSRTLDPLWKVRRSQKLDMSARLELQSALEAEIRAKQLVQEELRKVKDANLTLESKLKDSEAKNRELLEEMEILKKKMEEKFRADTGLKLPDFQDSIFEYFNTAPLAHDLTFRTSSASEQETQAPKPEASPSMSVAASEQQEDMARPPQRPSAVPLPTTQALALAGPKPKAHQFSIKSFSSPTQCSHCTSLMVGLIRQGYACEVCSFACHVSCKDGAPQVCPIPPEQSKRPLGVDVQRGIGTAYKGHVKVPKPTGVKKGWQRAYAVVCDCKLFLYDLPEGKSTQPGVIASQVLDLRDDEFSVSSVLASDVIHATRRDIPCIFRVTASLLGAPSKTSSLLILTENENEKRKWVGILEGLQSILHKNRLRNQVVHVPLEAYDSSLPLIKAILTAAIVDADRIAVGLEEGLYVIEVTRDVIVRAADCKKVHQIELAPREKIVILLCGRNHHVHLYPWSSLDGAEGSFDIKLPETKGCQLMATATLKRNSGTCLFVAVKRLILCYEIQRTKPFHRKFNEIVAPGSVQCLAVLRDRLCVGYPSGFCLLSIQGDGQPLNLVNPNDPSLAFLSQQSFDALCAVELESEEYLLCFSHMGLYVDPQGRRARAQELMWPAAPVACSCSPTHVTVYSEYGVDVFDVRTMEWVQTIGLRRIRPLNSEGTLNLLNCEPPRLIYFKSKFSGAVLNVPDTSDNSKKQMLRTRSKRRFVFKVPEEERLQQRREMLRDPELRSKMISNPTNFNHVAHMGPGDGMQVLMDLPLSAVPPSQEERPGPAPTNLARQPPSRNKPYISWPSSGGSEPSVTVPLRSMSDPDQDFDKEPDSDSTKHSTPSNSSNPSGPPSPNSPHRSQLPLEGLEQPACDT
Cyclin-dependent kinase 7, sequence (P50613 whole entry): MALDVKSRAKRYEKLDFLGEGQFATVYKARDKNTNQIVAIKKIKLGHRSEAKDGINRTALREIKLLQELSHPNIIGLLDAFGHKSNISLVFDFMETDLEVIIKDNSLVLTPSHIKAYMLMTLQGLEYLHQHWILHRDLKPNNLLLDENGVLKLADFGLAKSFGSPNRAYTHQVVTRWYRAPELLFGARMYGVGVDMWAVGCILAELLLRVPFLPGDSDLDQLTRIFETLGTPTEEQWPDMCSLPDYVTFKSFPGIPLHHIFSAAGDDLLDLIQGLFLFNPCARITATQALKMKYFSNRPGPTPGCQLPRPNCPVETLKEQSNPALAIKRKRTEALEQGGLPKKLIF

| Kd [1] | Kd [2] | Kd [3] | Kd (Ephrin type-A receptor 5) | Kd [4] | Kd [5] | Kd [6] | Kd [7] | Kd [8] | Kd [9] | Kd [10] | Structure (SMILES) |
| --- | --- | --- | --- | --- | --- | --- | --- | --- | --- | --- | --- |
| > 30 µM (inactive) | > 30 µM (inactive) | > 30 µM (inactive) | > 30 µM (inactive) | > 30 µM (inactive) | > 30 µM (inactive) | > 30 µM (inactive) | > 30 µM (inactive) | > 30 µM (inactive) | > 30 µM (inactive) | > 30 µM (inactive) | CO[C@H]1C[C@@H]2CC[C@@H](C)[C@@](O)(O2)C(=O)C(=O)N2CCCC[C@H]2C(=O)O[C@H]([C@H](C)C[C@@H]2CC[C@@H](OC(=O)C(C)(CO)CO)[C@H](OC)C2)CC(=O)[C@H](C)/C=C(\C)[C@@H](O)[C@@H](OC)C(=O)[C@H](C)C[C@H](C)/C=C/C=C/C=C/1C [TEMSIROLIMUS] |
| > 30 µM (inactive) | > 30 µM (inactive) | > 30 µM (inactive) | > 30 µM (inactive) | > 30 µM (inactive) | > 30 µM (inactive) | > 30 µM (inactive) | > 30 µM (inactive) | > 30 µM (inactive) | > 30 µM (inactive) | > 30 µM (inactive) | COc1cc2c(Nc3ccc(Cl)c(Cl)c3F)ncnc2cc1OC[C@@H]1C[C@@H]2CN(C)C[C@@H]2C1 [TESEVATINIB] |
| > 30 µM (inactive) | > 30 µM (inactive) | > 30 µM (inactive) | > 30 µM (inactive) | > 30 µM (inactive) | > 30 µM (inactive) | > 30 µM (inactive) | > 30 µM (inactive) | > 30 µM (inactive) | > 30 µM (inactive) | > 30 µM (inactive) | O=C(Cc1ccc(-c2ccc(OCCN3CCOCC3)cc2)cn1)NCc1ccccc1 [TIRBANIBULIN] |
| > 30 µM (inactive) | > 30 µM (inactive) | > 30 µM (inactive) | > 30 µM (inactive) | > 30 µM (inactive) | > 30 µM (inactive) | > 30 µM (inactive) | > 30 µM (inactive) | > 30 µM (inactive) | > 30 µM (inactive) | > 30 µM (inactive) | O=C1NC(=O)[C@@H](c2cn3c4c(cccc24)CCC3)[C@@H]1c1c[nH]c2ccccc12 [TIVANTINIB] |

The remaining lines, values behind:

| Structure (SMILES) | Kd [1] | Kd [2] | Kd [3] | Kd (Ephrin type-A receptor 5) | Kd [4] | Kd [5] | Kd [6] | Kd [7] | Kd [8] | Kd [9] | Kd [10] |
| --- | --- | --- | --- | --- | --- | --- | --- | --- | --- | --- | --- |
| O=c1[nH]ccc2cc(OC3CCNCC3)ccc12 [SAR-407899 FREE BASE] | 0.016 µM (active) | > 30 µM (inactive) | > 30 µM (inactive) | > 30 µM (inactive) | > 30 µM (inactive) | > 30 µM (inactive) | > 30 µM (inactive) | > 30 µM (inactive) | > 30 µM (inactive) | > 30 µM (inactive) | > 30 µM (inactive) |
| CN1CCN(CCOc2cc(OC3CCOCC3)c3c(Nc4c(Cl)ccc5c4OCO5)ncnc3c2)CC1 [SARACATINIB] | > 30 µM (inactive) | > 30 µM (inactive) | > 30 µM (inactive) | 2.38 µM (active) | > 30 µM (inactive) | > 30 µM (inactive) | > 30 µM (inactive) | > 30 µM (inactive) | > 30 µM (inactive) | > 30 µM (inactive) | > 30 µM (inactive) |
| CO[C@H]1C[C@@H]2CC[C@@H](C)[C@@](O)(O2)C(=O)C(=O)N2CCCC[C@H]2C(=O)O[C@H]([C@H](C)C[C@@H]2CC[C@@H](O)[C@H](OC)C2)CC(=O)[C@H](C)/C=C(\C)[C@@H](O)[C@@H](OC)C(=O)[C@H](C)C[C@H](C)/C=C/C=C/C=C/1C [SIROLIMUS] | > 30 µM (inactive) | > 30 µM (inactive) | > 30 µM (inactive) | > 30 µM (inactive) | > 30 µM (inactive) | > 30 µM (inactive) | > 30 µM (inactive) | > 30 µM (inactive) | > 30 µM (inactive) | > 30 µM (inactive) | > 30 µM (inactive) |
| CCS(=O)(=O)c1cccc(-c2cc(C(=O)NC3CCN(C)CC3)c(C)c3[nH]c4ncc(C)cc4c23)c1 [TAK-901] | > 30 µM (inactive) | 0.205 µM (active) | > 30 µM (inactive) | 0.508 µM (active) | > 30 µM (inactive) | > 30 µM (inactive) | > 30 µM (inactive) | > 30 µM (inactive) | > 30 µM (inactive) | > 30 µM (inactive) | > 30 µM (inactive) |
